Assay results taken from patent US20070166772A1, “Methods for selecting compounds using antibodies with activity as antagonist, antagonist or allosteric modulators” (priority 2003, published 2007).

Assays:
[1] = target: second extracellular loop of the muscarinic M2 receptor (homologue peptide) (Homo sapiens, UniProt P08172); experiment: Indirect Inhibition ELISA (IIE): antibody against M2 receptor, homologue peptide and ligand in liquid phase; assay type: binding; conditions: FIG. 5
Procedure: The selected molecule should beside binding the parent peptide in solid phase also be able to bind it in liquid phase. The latter would mime the in vivo conformation of the parent peptide. • Coating • Corresponding peptide is dissolved extemporaneously in appropriate buffer. Peptide at calibrated concentration is coated on a highly absorbing microtitre plate. • Blocking of on-specific binding • Wash • The plate is washed with washing buffer (appendix 1). • Selected molecules to be tested on IIE • Each molecule dissolved at known concentration is distributed on the plate. Immediately different cascade concentration of the parent peptide is added to the well. This is thereafter followed by the first antibody at AD50 dilution and incubated for an appropriate time and at an optimal temperature. • Wash • The plate is washed with washing buffer (appendix 1). • Secondary antibodies • Peroxidase conjugated goat anti-rabbit antibodies diluted at appropriate dilution (appendix 2) is allowed to react with the bound polyclonal anti-GPCR antibodies for an appropriate time and at an optimal temperature. • Wash
The same protocol as mentioned above in “Example 1 ” was performed: […]

[2] = system: second extracellular loop of the 5-HT4 receptor (peptide C15Q); experiment: Inhibition ELISA (IE): anti-peptide antibody against 5-HT4 receptor on the coated synthetic peptide C15Q; assay type: binding; conditions: FIG. 3
Procedure: • Coating • Corresponding peptide is dissolved extemporaneously in appropriate buffer. Peptide at calibrated concentration is coated on a highly absorbing microtitre plate. • Blocking of non-specific binding • Wash • The plate is washed with washing buffer (appendix 1). • Molecules to be screened on the peptide • Each molecule is dissolved and distributed on the plate.
Each molecule which is able to decrease the absorbance at 405 nm at around 20% from its control value is selected for the DMAE.
Five μg/ml of corresponding peptide (C15Q) was coated on a microtitre plate (Falcon, 96 wells). After blocking nonspecific binding sites with blocking buffer, polyclonal anti-C15Q antibodies at decreasing serial dilutions were allowed to react with the peptide.
The same protocol as mentioned above in “Example 1” was performed: […]

Chain of second extracellular loop of the muscarinic M2 receptor (homologue peptide) (P08172 163-182 limits assumed): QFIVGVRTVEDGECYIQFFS

| Structure (SMILES) | competition with the homologue peptide for binding the anti-peptide antibodies [1] | inhibition of the interaction of the anti-peptide antibody raised against the 5-HT4 receptor with the corresponding synthetic peptide [2] |
| --- | --- | --- |
| CC[N+](CC)(CC)CCOc1cccc(OCC[N+](CC)(CC)CC)c1OCC[N+](CC)(CC)CC [gallamine] | able to compete with the homologue peptide and hinder the recognition between the homologue peptide and the anti-peptide in liquid phase | – |
| NCCc1c[nH]c2ccc(O)cc12 [5-HT, serotonin] | – | specifically inhibited |
